Columns and labels:
[1] = test system: Entamoeba histolytica; assay: Antiamoebic activity against trophozoite stage of Entamoeba histolytica HM-1:IMSS after 72 hrs by microdilution method; assay type: functional, organism-based
[2] = Cytotoxicity against human HeLa cells assessed as cell viability at 208 nM after 48 hrs by MTT assay relative to control; assay type: cell-based; settings: read-out: Activity
[3] = Cytotoxicity against human HeLa cells assessed as cell viability at 208 nM after 72 hrs by MTT assay relative to control; assay type: cell-based; settings: read-out: Activity
[4] = Cytotoxicity against human HeLa cells assessed as cell viability at 208 nM after 24 hrs by MTT assay relative to control; assay type: cell-based; settings: read-out: Activity
[5] = Cytotoxicity against human HeLa cells assessed as cell viability at 387 nM after 72 hrs by MTT assay relative to control; assay type: cell-based; settings: read-out: Activity
[6] = Cytotoxicity against human HeLa cells assessed as cell viability at 387 nM after 48 hrs by MTT assay relative to control; assay type: cell-based; settings: read-out: Activity
[7] = Cytotoxicity against human HeLa cells assessed as cell viability at 387 nM after 24 hrs by MTT assay relative to control; assay type: cell-based; settings: read-out: Activity
[8] = Cytotoxicity against human HeLa cells assessed as cell viability at 360 nM after 24 hrs by MTT assay relative to control; assay type: cell-based; settings: read-out: Activity
[9] = Cytotoxicity against human HeLa cells assessed as cell viability at 360 nM after 72 hrs by MTT assay relative to control; assay type: cell-based; settings: read-out: Activity
[10] = Cytotoxicity against human HeLa cells assessed as cell viability at 360 nM after 48 hrs by MTT assay relative to control; assay type: cell-based; settings: read-out: Activity
[11] = Cytotoxicity against human HeLa cells assessed as cell viability at 490 nM after 24 hrs by MTT assay relative to control; assay type: cell-based; settings: read-out: Activity
[12] = Cytotoxicity against human HeLa cells assessed as cell viability at 490 nM after 72 hrs by MTT assay relative to control; assay type: cell-based; settings: read-out: Activity
[13] = Cytotoxicity against human HeLa cells assessed as cell viability at 490 nM after 48 hrs by MTT assay relative to control; assay type: cell-based; settings: read-out: Activity
[14] = Cytotoxicity against human HeLa cells assessed as cell viability at 435 nM after 48 hrs by MTT assay relative to control; assay type: cell-based; settings: read-out: Activity
[15] = Cytotoxicity against human HeLa cells assessed as cell viability at 435 nM after 72 hrs by MTT assay relative to control; assay type: cell-based; settings: read-out: Activity
[16] = Cytotoxicity against human HeLa cells assessed as cell viability at 435 nM after 24 hrs by MTT assay relative to control; assay type: cell-based; settings: read-out: Activity
[17] = Cytotoxicity against human HeLa cells assessed as cell viability at 370 nM after 72 hrs by MTT assay relative to control; assay type: cell-based; settings: read-out: Activity
[18] = Cytotoxicity against human HeLa cells assessed as cell viability at 370 nM after 24 hrs by MTT assay relative to control; assay type: cell-based; settings: read-out: Activity
[19] = Cytotoxicity against human HeLa cells assessed as cell viability at 370 nM after 48 hrs by MTT assay relative to control; assay type: cell-based; settings: read-out: Activity

Structure (SMILES): Cc1ncc([N+](=O)[O-])n1CCOc1ccc(C=O)cc1
- IC50 [1]: 11.5 µM

Structure (SMILES): Cc1ncc([N+](=O)[O-])n1CCOc1ccc(/C=N/NC(=O)c2ccccc2)cc1
- IC50 [1]: 2.02 µM

Structure (SMILES): Cc1ncc([N+](=O)[O-])n1CCOc1ccc(/C=N/NC(=O)c2ccc(Cl)cc2)cc1
- viability at 48 h, 0.208 µM [2]: 93.7%
- IC50 [1]: 0.2 µM
- viability at 72 h, 0.208 µM [3]: 65.9%
- viability at 24 h, 0.208 µM [4]: 85.9%

Structure (SMILES): Cc1ncc([N+](=O)[O-])n1CCOc1ccc(/C=N/NC(=O)c2ccc(O)cc2)cc1
- viability at 72 h, 0.387 µM [5]: 54.4%
- viability at 48 h, 0.387 µM [6]: 87.1%
- viability at 24 h, 0.387 µM [7]: 81.9%
- IC50 [1]: 0.38 µM

Structure (SMILES): Cc1ncc([N+](=O)[O-])n1CCOc1ccc(/C=N/NC(=O)c2ccc([N+](=O)[O-])cc2)cc1
- viability at 24 h, 0.36 µM [8]: 78.5%
- viability at 72 h, 0.36 µM [9]: 68.3%
- IC50 [1]: 0.36 µM
- viability at 48 h, 0.36 µM [10]: 88.9%

Structure (SMILES): COc1ccc(C(=O)N/N=C/c2ccc(OCCn3c([N+](=O)[O-])cnc3C)cc2)cc1
- IC50 [1]: 7.12 µM

Structure (SMILES): Cc1ccc(C(=O)N/N=C/c2ccc(OCCn3c([N+](=O)[O-])cnc3C)cc2)cc1
- viability at 24 h, 0.49 µM [11]: 66.2%
- viability at 72 h, 0.49 µM [12]: 50.8%
- viability at 48 h, 0.49 µM [13]: 83.8%
- IC50 [1]: 0.49 µM

Structure (SMILES): Cc1ncc([N+](=O)[O-])n1CCOc1ccc(/C=N/NC(=O)c2ccc(N)cc2)cc1
- viability at 48 h, 0.435 µM [14]: 80.1%
- viability at 72 h, 0.435 µM [15]: 60.3%
- IC50 [1]: 0.43 µM
- viability at 24 h, 0.435 µM [16]: 79.8%

Structure (SMILES): Cc1ncc([N+](=O)[O-])n1CCOc1ccc(/C=N/NC(=O)c2ccc(C(C)(C)C)cc2)cc1
- IC50 [1]: 1.98 µM

Structure (SMILES): Cc1cc(C)cc(C(=O)N/N=C/c2ccc(OCCn3c([N+](=O)[O-])cnc3C)cc2)c1
- IC50 [1]: 5.96 µM

Structure (SMILES): COc1cc(OC)cc(C(=O)N/N=C/c2ccc(OCCn3c([N+](=O)[O-])cnc3C)cc2)c1
- IC50 [1]: 4.39 µM

Structure (SMILES): Cc1ncc([N+](=O)[O-])n1CCOc1ccc(/C=N/NC(=O)c2cc(O)cc(O)c2)cc1
- viability at 72 h, 0.37 µM [17]: 59.8%
- IC50 [1]: 0.37 µM
- viability at 24 h, 0.37 µM [18]: 93.4%
- viability at 48 h, 0.37 µM [19]: 92.1%

Structure (SMILES): COc1cc(C(=O)N/N=C/c2ccc(OCCn3c([N+](=O)[O-])cnc3C)cc2)cc(OC)c1OC
- IC50 [1]: 2.6 µM

From ChEMBL document CHEMBL3603829, “Metronidazole hydrazone conjugates: Design, synthesis, antiamoebic and molecular docking studies” (Bioorg Med Chem Lett, 2015)
